pEC50, pKi: −log10 of the molar value. “And” between values parts separate entries of the source, which are not always exact repeats. Identical values can stand only once.
Assays:
[1] = molecular target: 5HT1E (Homo sapiens, UniProt P28566); test: β-arrestin2 recruitment (Tango); format: cell-based; settings: Fig_S10i
[2] = molecular target: T1, 5HT1F (Homo sapiens, UniProt P30939); test: β-arrestin2 recruitment (Tango); format: cell-based; settings: for β-arrestin2 recruitment response, agonist mode (single replicate values): Fig_S10j; for Fig_S10j dose-response, drug alone (agonist mode), β-arrestin2 recruitment: single replicate values
T1 construct: expressed in transfected cells; host or cells: HTLA cells expressing TEV-fused β-arrestin2
T1 sequence (P30939 1-366): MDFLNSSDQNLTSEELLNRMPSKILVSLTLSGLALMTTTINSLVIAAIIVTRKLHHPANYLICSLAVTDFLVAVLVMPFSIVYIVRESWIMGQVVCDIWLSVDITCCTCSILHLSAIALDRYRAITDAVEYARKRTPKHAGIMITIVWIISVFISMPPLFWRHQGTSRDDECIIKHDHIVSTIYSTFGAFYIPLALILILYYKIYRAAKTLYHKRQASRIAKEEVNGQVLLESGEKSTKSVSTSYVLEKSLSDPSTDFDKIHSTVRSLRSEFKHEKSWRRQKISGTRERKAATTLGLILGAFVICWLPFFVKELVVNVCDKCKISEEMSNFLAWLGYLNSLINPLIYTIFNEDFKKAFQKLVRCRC

[3] = tested on: serotonin receptor (subtype not given; reference agonist serotonin); test: β-arrestin2 recruitment (Tango), agonist activity, source data Fig_S10m; format: cell-based, human; settings: drug alone
[4] = molecular target: T2, DRD2 F1103.28A (Homo sapiens, UniProt P14416, F110A); format: binding; parameters: expressed in transfected cells; host or cells: HEK293T (ATCC CRL-11268); settings: DRD2 F1103.28A; read-out: Ki
[5] = molecular target: T2, DRD2 F1103.28A; test: β-arrestin2 recruitment (Tango), mutant; format: cell-based; parameters: expressed in transfected cells; host or cells: HEK293T (ATCC CRL-11268)

Chain of 5HT1E (P28566 whole entry): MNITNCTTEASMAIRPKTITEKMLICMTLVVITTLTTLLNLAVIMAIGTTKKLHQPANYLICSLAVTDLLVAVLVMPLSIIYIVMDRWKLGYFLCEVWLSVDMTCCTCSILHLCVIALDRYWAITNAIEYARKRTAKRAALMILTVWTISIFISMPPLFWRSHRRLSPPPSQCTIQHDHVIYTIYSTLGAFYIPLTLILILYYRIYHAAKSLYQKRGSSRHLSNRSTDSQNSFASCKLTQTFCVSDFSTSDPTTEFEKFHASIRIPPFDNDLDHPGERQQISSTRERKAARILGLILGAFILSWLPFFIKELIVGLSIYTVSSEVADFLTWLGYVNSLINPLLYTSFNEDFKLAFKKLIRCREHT
T2 sequence (P14416 whole entry F110A): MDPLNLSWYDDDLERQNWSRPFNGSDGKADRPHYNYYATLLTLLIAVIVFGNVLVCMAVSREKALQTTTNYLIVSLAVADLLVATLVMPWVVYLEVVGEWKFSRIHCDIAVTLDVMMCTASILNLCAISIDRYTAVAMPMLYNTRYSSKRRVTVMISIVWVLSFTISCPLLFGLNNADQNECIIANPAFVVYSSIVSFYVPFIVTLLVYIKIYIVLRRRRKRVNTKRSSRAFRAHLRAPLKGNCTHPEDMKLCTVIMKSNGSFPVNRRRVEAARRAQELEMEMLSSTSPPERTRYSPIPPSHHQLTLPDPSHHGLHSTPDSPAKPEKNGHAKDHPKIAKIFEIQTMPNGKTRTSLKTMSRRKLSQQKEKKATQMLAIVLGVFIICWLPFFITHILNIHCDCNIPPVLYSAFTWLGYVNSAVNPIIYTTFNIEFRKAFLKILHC

CCOc1cccc2cc([C@@H](C)NCC3(O)CCCCC3)oc12 [O4RE6]
β-arrestin2 recruitment response, agonist mode (single replicate values) ([1]; Log[Drug] -7): -9.403 and -3.356 and -7.031 and 6.361 and -8.019 and 5.611 and -6.317 and -9.482 and -17.1569 | β-arrestin2 recruitment response, agonist mode (single replicate values) ([1]; Log[Drug] -7.52): -7.7314 and -4.654 and -9.0776 and 5.71 and 2.776 and -4.782 and -16.2446 and -11.396 and -8.341 | β-arrestin2 recruitment response, agonist mode (single replicate values) ([1]; Log[Drug] -8): -0.303 and 2.682 and 0.8105 and -16.5035 and -1.474 and 1.2682 and -16.075 and -2.697 and -15.9171 | β-arrestin2 recruitment response, agonist mode (single replicate values) ([1]; Log[Drug] -8.52): -6.877 and -0.9842 and -10.6793 and 4.799 and 9.189 and -4.891 and 2.59 and -7.1 and -6.491 | β-arrestin2 recruitment response, agonist mode (single replicate values) ([1]; Log[Drug] -9): -3.28 and 6.173 and 0.4053 and -14.2337 and -0.6567 and 5.487 and -22.7397 and -14.6836 and -5.277 | β-arrestin2 recruitment response, agonist mode (single replicate values) ([1]; Log[Drug] -9.52): -0.2537 and -8.594 and -3.456 and -0.4529 and -8.792 and -9.322 and -17.3288 and -4.524 and -7.744 | β-arrestin2 recruitment response, agonist mode (single replicate values) ([1]; Log[Drug] -10): -3.52 and -2.38 and 3.183 and -31.9257 and 29.8123 and -9.337 and -10.0295 and -4.283 and -12.1769 | β-arrestin2 recruitment response, agonist mode (single replicate values) ([1]; Log[Drug] -10.52): 0.1347 and 0.5117 and -4.0638 and -13.472 and -7.0659 and -13.7571 and -9.427 and -7.368 and -17.0465 | β-arrestin2 recruitment response, agonist mode (single replicate values) ([1]; Log[Drug] -11): 7.882 and 2.36 and 5.579 and -8.103 and -1.831 and -9.017 and -8.127 and -1.8482 and -12.9803 | β-arrestin2 recruitment response, agonist mode (single replicate values) ([2]; Log[Drug] -8): -0.9904 and 0.5932 and 0.4069 and -0.749 and -2.5023 and -1.954 and -1.184 and -1.248 and -0.2773 | β-arrestin2 recruitment response, agonist mode (single replicate values) ([2]; Log[Drug] -8.52): 0.3187 and 0.8997 and 1.294 and 0.7694 and -1.144 and -0.1941 and 0.6567 and 0.7348 and -0.5451 | β-arrestin2 recruitment response, agonist mode (single replicate values) ([2]; Log[Drug] -9): 0.2574 and -0.174 and 0.01716 and -1.454 and -1.951 and -2.373 and 1.634 and -1.575 and -0.4734 | β-arrestin2 recruitment response, agonist mode (single replicate values) ([2]; Log[Drug] -9.52): -0.956 and -0.4682 and 0.01716 and 8.249 and -1.726 and -1.835 and -1.503 and -0.6631 and 0.5435 | β-arrestin2 recruitment response, agonist mode (single replicate values) ([2]; Log[Drug] -10): 2.1842 and 2.2749 and -0.3922 and 0.1736 and 1.58 and -1.964 and -1.621 and -1.4329 and 0.0271 | β-arrestin2 recruitment response, agonist mode (single replicate values) ([2]; Log[Drug] -10.52): 0.6104 and 0.6079 and -0.2672 and -0.6094 and -0.8784 and -1.423 and 0.2215 and -0.4766 and -0.1562 | β-arrestin2 recruitment response, agonist mode (single replicate values) ([2]; Log[Drug] -11): -0.2991 and -0.7746 and -0.956 and -0.1975 and -1.559 and -1.001 and -0.7953 and -1.428 and -1.442 | β-arrestin2 recruitment response, agonist mode (single replicate values) ([2]; Log[Drug] -11.52): 9.046 and 4.9 and 0.09315 and 0.6026 and -0.4766 and -1.413 and -2.451 and -1.372 and 1.5094 | β-arrestin2 recruitment response, agonist mode (single replicate values) ([2]; Log[Drug] -12): -1.25 and -0.8555 and 2.1082 and 1.035 and 1.318 and -2.3525 and 0.1164 and 0.6822 and -0.7969 | Fig_S10j dose-response, drug alone (agonist mode), β-arrestin2 recruitment ([2]; Log[Drug] -5): 1.292 and 2.037 and 1.765 and 2.135 and 0.1634 and 3.054 and 1.165 and -0.4495 and -0.04941 | Fig_S10j dose-response, drug alone (agonist mode), β-arrestin2 recruitment ([2]; Log[Drug] -5.52): -0.7085 and 0.2942 and 0.1765 and 0.7149 and -0.06809 and -1.164 and 0.2965 and -1.31 and 0.1036 | Fig_S10j dose-response, drug alone (agonist mode), β-arrestin2 recruitment ([2]; Log[Drug] -6): -1.684 and 5.405 and 2.934 and -0.3268 and -0.4664 and -1.437 and 0.7141 and -1.815 and -1.243 | Fig_S10j dose-response, drug alone (agonist mode), β-arrestin2 recruitment ([2]; Log[Drug] -6.52): 1.461 and 1.956 and 0.6766 and -2.305 and -1.43 and 2.938 and -0.4511 and -1.052 and 1.639 | Fig_S10j dose-response, drug alone (agonist mode), β-arrestin2 recruitment ([2]; Log[Drug] -7): -0.5859 and 0.3873 and 1.292 and -1.294 and -0.606 and 1.008 and -0.03666 and -1.56 and -1.246 | Fig_S10j dose-response, drug alone (agonist mode), β-arrestin2 recruitment ([2]; Log[Drug] -7.52): -0.7844 and 5.5181 and -0.1961 and 0.48 and -1.147 and -0.875 and -0.2471 and -0.4702 and -1.368 | response, Fig_S10m, replicate values ([3]; Log[Drug] -10): 2.7529 and -0.4377 and -1.97 and -0.5261 and 1.876 and -0.04315 and 3.796 and 2.966 and 1.035 | response, Fig_S10m, replicate values ([3]; Log[Drug] -10.52): 0.7688 and 0.004826 and -2.114 and 0.954 and 0.8686 and -0.8567 and -0.09082 and -0.6687 and 2.414 | response, Fig_S10m, replicate values ([3]; Log[Drug] -11): 1.778 and -1.268 and 4.058 and 1.198 and 1.567 and 2.185 and -0.6818 and -1.429 and -2.744 | response, Fig_S10m, replicate values ([3]; Log[Drug] -11.52): -1.448 and 1.084 and -0.9329 and 1.724 and -0.9384 and 3.221 and 2.656 and 0.1211 and -2.648 | response, Fig_S10m, replicate values ([3]; Log[Drug] -12): 3.008 and 0.9208 and 2.0444 and 1.398 and -0.9127 and 1.032 and 3.604 and 5.24 and 4.003 | pKi [4]: 6.31 | pEC50 [5]: < 5.00
